Literature values in PubChem BioAssay AID1259409 (Chemical Carcinogenesis Research Information System (CCRIS), 2018).

System: rodent chemically induced tumor inhibition, incidence and multiplicity
Assay: CCRIS tumor inhibitor studies
Details: Promoter: NONE USED
Source text: The CCRIS database contains chemical records with carcinogenicity, mutagenicity, tumor promotion, and tumor inhibition test results. It was developed by the National Cancer Institute (NCI). Data are derived from studies cited in primary journals, current awareness tools, NCI reports, and other sources. Test results have been reviewed by experts in carcinogenesis and mutagenesis.
CCRIS provides historical information from the years 1985 - 2011. It is no longer updated.
This is an archive assay for CCRIS tumor inhibitor studies.

## CCCCCCCCCCCCCCCC(=O)OC/C=C(C)/C=C/C=C(C)/C=C/C1=C(C)CCCC1(C)C
Carcinogen: 3-METHYLCHOLANTHRENE, 56-49-5, Dose [Inhibitor]: 6 MG IN 0.1 ML ACETONE STARTING 2 WK AFTER CARCINOGEN TREATMENT AND APPLIED 2/WK DURING WK 3-5 OF THE STUDY AND THEN 1/W, Route [Inhibitor]: DERMAL, Species: MOUSE, Strain/Sex: SWISS/FEMALE, Target Tissue: Type of Lesion: SKIN: CARCINOMA, Dose [Carcinogen]: 0.1 ML OF 0.3% DISSOLVED IN ACETONE APPLIED 2/WK FIRST 5 WK THEN 1/WK FOR WK 6-9 FOLLOWED BY NO FURTHER TREATMENT THROUG
  tumour outcome (control, treated, inhibition, significance): 5/19 (26%), 4/20 (20%), 23%, not calculated
Carcinogen: 3-METHYLCHOLANTHRENE, 56-49-5, Dose [Inhibitor]: 6 MG IN 0.1 ML ACETONE STARTING 2 WK AFTER CARCINOGEN TREATMENT AND APPLIED 2/WK DURING WK 3-5 OF THE STUDY AND THEN 1/W, Route [Inhibitor]: DERMAL, Species: MOUSE, Strain/Sex: SWISS/FEMALE, Target Tissue: Type of Lesion: SKIN: PAPILLOMA, Dose [Carcinogen]: 0.1 ML OF 0.3% DISSOLVED IN ACETONE APPLIED 2/WK FIRST 5 WK THEN 1/WK FOR WK 6-9 FOLLOWED BY NO FURTHER TREATMENT THROUG
  tumour outcome (control, treated, inhibition, significance): 9/19 (47%), 3/20 (15%), 68%, not calculated
Carcinogen: 7,12-DIMETHYLBENZ[A]ANTHRACENE, 57-97-6, Dose [Inhibitor]: 0, 5000 IU APPLIED TO EACH CHEEK POUCH 2/WK BEGINNING 15 D POST LAST CARCINOGEN DOSE AND CONTINUING FOR 4.5 MO (STUDY DU, Route [Inhibitor]: DERMAL, Species: HAMSTER, Strain/Sex: SYRIAN/MALE, Target Tissue: Type of Lesion: CHEEK POUCH: TUMOR, Dose [Carcinogen]: 0.125 MG (0.25% LIQUID PARAFFIN SOLUTION) APPLIED TO EACH CHEEK POUCH 2/WK FOR 1 MO
  tumour outcome (control, treated, inhibition, significance): 10/15 (67%), 0/20 (0%), 100%, not calculated
Carcinogen: 7,12-DIMETHYLBENZ[A]ANTHRACENE, 57-97-6, Dose [Inhibitor]: 0, 5000 IU APPLIED TO EACH CHEEK POUCH 2/WK BEGINNING 15 D POST LAST CARCINOGEN DOSE AND CONTINUING FOR 4.5 MO (STUDY DU, Route [Inhibitor]: DERMAL, Species: HAMSTER, Strain/Sex: SYRIAN/MALE, Target Tissue: Type of Lesion: STOMACH: TUMOR, Dose [Carcinogen]: 0.125 MG (0.25% LIQUID PARAFFIN SOLUTION) APPLIED TO EACH CHEEK POUCH 2/WK FOR 1 MO
  tumour outcome (control, treated, inhibition, significance): 15/15 (100%), 0/20 (0%), 100%, not calculated
Carcinogen: 7,12-DIMETHYLBENZ[A]ANTHRACENE, 57-97-6, Dose [Inhibitor]: 20000 IU/KG IN DIET BEGINNING 6 WK PRIOR TO CARCINOGEN DOSE AND CONTINUING FOR 21-22 WK POST CARCINOGEN DOSE (STUDY DURA, Route [Inhibitor]: ORAL, Species: RAT, Strain/Sex: SPRAGUE-DAWLEY/MALE, Target Tissue: Type of Lesion: SALIVARY GLAND: TUMOR, Dose [Carcinogen]: 1 MG IN 20 µL OLIVE OIL INJECTED INTO SUBMANDIBULAR GLAND ONCE
  tumour outcome (control, treated, inhibition, significance): 20/28 (71%), 16/29 (55%), 23%, not significant
Carcinogen: 7,12-DIMETHYLBENZ[A]ANTHRACENE, 57-97-6, Dose [Inhibitor]: 100000 IU/KG IN DIET BEGINNING 6 WK PRIOR TO CARCINOGEN DOSE AND CONTINUING FOR 21-22 WK POST CARCINOGEN DOSE (STUDY DUR, Route [Inhibitor]: ORAL, Species: RAT, Strain/Sex: SPRAGUE-DAWLEY/MALE, Target Tissue: Type of Lesion: SALIVARY GLAND: TUMOR, Dose [Carcinogen]: 1 MG IN 20 µL OLIVE OIL INJECTED INTO SUBMANDIBULAR GLAND ONCE
  tumour outcome (control, treated, inhibition, significance): 20/28 (71%), 17/29 (59%), 17%, not significant
Carcinogen: BENZO[A]PYRENE, 50-32-8, Dose [Inhibitor]: 50, 200 IU/D IN DRINKING WATER FOR 61 WK BEGINNING POST CARCINOGEN TREATMENT (STUDY DURATION: 66 WK), Route [Inhibitor]: ORAL, Species: MOUSE, Strain/Sex: ICR/MALE, Target Tissue: Type of Lesion: FORESTOMACH: CARCINOMA, Dose [Carcinogen]: 20 MG IN 0.2 ML CORN OIL 2/WK FOR 5 WK
  tumour outcome (control, treated, inhibition, significance): 8/28 (29%), 5/26 (19%), 34%, not significant
Carcinogen: BENZO[A]PYRENE, 50-32-8, Dose [Inhibitor]: 50, 200 IU/D IN DRINKING WATER FOR 61 WK BEGINNING POST CARCINOGEN TREATMENT (STUDY DURATION: 66 WK), Route [Inhibitor]: ORAL, Species: MOUSE, Strain/Sex: ICR/MALE, Target Tissue: Type of Lesion: FORESTOMACH: PAPILLOMA, Dose [Carcinogen]: 2 MG IN 0.2 ML CORN OIL 2/WK FOR 5 WK
  tumour outcome (control, treated, inhibition, significance): 8/28 (29%), 2/27 (7%), 76%, p<0.05
Carcinogen: BENZO[A]PYRENE, 50-32-8, Dose [Inhibitor]: 50, 200 IU/D IN DRINKING WATER FOR 61 WK BEGINNING POST CARCINOGEN TREATMENT (STUDY DURATION: 66 WK), Route [Inhibitor]: ORAL, Species: MOUSE, Strain/Sex: ORAL, Target Tissue: Type of Lesion: FORESTOMACH: PAPILLOMA, Dose [Carcinogen]: 20 MG IN O.2 ML CORN OIL 2/WK FOR 5 WK
  tumour outcome (control, treated, inhibition, significance): 26/28 (93%), 23/26 (88%), 5%, not significant
Carcinogen: BENZO[A]PYRENE, 50-32-8, Dose [Inhibitor]: 50, 200 IU/D IN DRINKING WATER FOR DURATION OF STUDY (STUDY DURATION: 66 WK), Route [Inhibitor]: ORAL, Species: MOUSE, Strain/Sex: ICR/MALE, Target Tissue: Type of Lesion: FORESTOMACH: PAPILLOMA, Dose [Carcinogen]: 2 MG IN 0.2 ML CORN OIL 2/WK FOR 5 WK
  tumour outcome (control, treated, inhibition, significance): 8/28 (29%), 2/27 (7%), 76%, p,0.05
Carcinogen: BENZO[A]PYRENE, 50-32-8, Dose [Inhibitor]: 50, 200 IU/D IN DRINKING WATER FOR THE DURATION OF STUDY (STUDY DURATION: 66 WK), Route [Inhibitor]: ORAL, Species: MOUSE, Strain/Sex: ICR/MALE, Target Tissue: Type of Lesion: FORESTOMACH: CARCINOMA, Dose [Carcinogen]: 20 MG IN 0.2 ML CORN OIL 2/WK FOR 5 WK
  tumour outcome (control, treated, inhibition, significance): 8/28 (29%), 7/27 (26%), 10%, not significant
Carcinogen: BENZO[A]PYRENE, 50-32-8, Dose [Inhibitor]: 50, 200 IU/D IN DRINKING WATER FOR THE DURATION OF STUDY (STUDY DURATION: 66 WK), Route [Inhibitor]: ORAL, Species: MOUSE, Strain/Sex: ICR/MALE, Target Tissue: Type of Lesion: FORESTOMACH: PAPILLOMA, Dose [Carcinogen]: 20 MG IN 0.2 ML CORN OIL 2/WK FOR 5 WK
  tumour outcome (control, treated, inhibition, significance): 26/28 (93%), 20/27 (74%), 19%, not significant
Carcinogen: FIBERGLASS DUST, Dose [Inhibitor]: 50 MG/KG BW IN AQUASOL A PLACEBO, 1/3 D FOR 10 TREATMENTS STARTING 3 D POST CARCINOGEN TREATMENT (STUDY DURATION: 90 D), Route [Inhibitor]: INTRAPERITONEAL, Species: MOUSE, Strain/Sex: STRAIN-A/MALE, Target Tissue: Type of Lesion: LUNG: BRONCHIOGENIC OR SEPTAL CELL TUMOR, Dose [Carcinogen]: 300 MG IN 100 G OF STERILIZED PINE SAWDUST BEDDING CHANGED 1/3 D FOR 30 D STARTING 33 D PRIOR TO START OF AGENT TREATMEN
  tumour outcome (control, treated, inhibition, significance): 6/12 (50%), 1/12 (8%), 84%, not calculated
Carcinogen: N-METHYL-N'-NITRO-N-NITROSOGUANIDINE, 70-25-7, Dose [Inhibitor]: 0, 150000 IU/KG DIET FOR 37 WK (STUDY DURATION: 38 WK), Route [Inhibitor]: ORAL, Species: RAT, Strain/Sex: WISTAR/MALE, Target Tissue: Type of Lesion: FORESTOMACH: BENIGN PAPILLOMA, Dose [Carcinogen]: 83 UG/ML IN DISTILLED DRINKING WATER FOR 37 WK
  tumour outcome (control, treated, inhibition, significance): 15/51 (29%), 3/28 (11%), 62%, p<0.05
Carcinogen: N-METHYL-N'-NITRO-N-NITROSOGUANIDINE, 70-25-7, Dose [Inhibitor]: 0, 150000 IU/KG DIET FOR 37 WK (STUDY DURATION: 38 WK), Route [Inhibitor]: ORAL, Species: RAT, Strain/Sex: WISTAR/MALE, Target Tissue: Type of Lesion: GASTROINTESTINAL TRACT (UPPER): MALIGNANT NEOPLASMS, Dose [Carcinogen]: 83 UG/ML IN DISTILLED DRINKING WATER FOR 37 WK
  tumour outcome (control, treated, inhibition, significance): 17/51 (33%), 18/28 (64%), -94%, p<0.05
Carcinogen: N-METHYL-N-NITROSOUREA, 684-93-5, Dose [Inhibitor]: 0.03 MMOL 3/WK STARTING 12 D THROUGH ABOUT 8 MO AFTER FIRST CARCINOGEN DOSE (STUDY DURATION: APPROXIMATELY 8 MO), Route [Inhibitor]: INTRARECTAL, Species: RAT, Strain/Sex: F344/MALE, Target Tissue: Type of Lesion: COLON: ADENOCARCINOMA, Dose [Carcinogen]: 2.5 MG 1/WK FOR 2 WK
  tumour outcome (control, treated, inhibition, significance): 3/39 (8%), 4/39 (10%), -25%, not significant
Carcinogen: N-METHYL-N-NITROSOUREA, 684-93-5, Dose [Inhibitor]: 0.03 MMOL 3/WK STARTING 12 D THROUGH ABOUT 8 MO AFTER FIRST CARCINOGEN DOSE (STUDY DURATION: APPROXIMATELY 8 MO), Route [Inhibitor]: INTRARECTAL, Species: RAT, Strain/Sex: F344/MALE, Target Tissue: Type of Lesion: COLON: ADENOMA, Dose [Carcinogen]: 2.5 MG 1/WK FOR 2 WK
  tumour outcome (control, treated, inhibition, significance): 11/39 (28%), 24/39 (62%), -121%, p<0.05
Carcinogen: N-METHYL-N-NITROSOUREA, 684-93-5, Dose [Inhibitor]: 0.03 MMOL 3/WK STARTING 15 D PRIOR TO THROUGH ABOUT 8 MO AFTER FIRST CARCINOGEN DOSE (STUDY DURATION: APPROXIMATELY 8 MO, Route [Inhibitor]: INTRARECTAL, Species: RAT, Strain/Sex: F344/MALE, Target Tissue: Type of Lesion: COLON: ADENOCARCINOMA, Dose [Carcinogen]: 2.5 MG 1/WK FOR 2 WK
  tumour outcome (control, treated, inhibition, significance): 3/39 (8%), 10/38 (26%), -225%, not significant
Carcinogen: N-METHYL-N-NITROSOUREA, 684-93-5, Dose [Inhibitor]: 0.03 MMOL 3/WK STARTING 15 D PRIOR TO THROUGH ABOUT 8 MO AFTER FIRST CARCINOGEN DOSE (STUDY DURATION: APPROXIMATELY 8 MO, Route [Inhibitor]: INTRARECTAL, Species: RAT, Strain/Sex: F344/MALE, Target Tissue: Type of Lesion: COLON: ADENOMA, Dose [Carcinogen]: 2.5 MG 1/WK FOR 2 WK
  tumour outcome (control, treated, inhibition, significance): 11/39 (28%), 24/38 (63%), -125%, p<0.05
